Experimental data published in ChEMBL document CHEMBL5136983, “How the structural properties of the indole derivatives are important in kinase targeted drug design?: A case study on tyrosine kinase inhibitors” (Bioorg Med Chem, 2022).

Biological target: T1, Epidermal growth factor receptor (Homo sapiens, UniProt P00533)
T1 sequence (P00533 whole entry): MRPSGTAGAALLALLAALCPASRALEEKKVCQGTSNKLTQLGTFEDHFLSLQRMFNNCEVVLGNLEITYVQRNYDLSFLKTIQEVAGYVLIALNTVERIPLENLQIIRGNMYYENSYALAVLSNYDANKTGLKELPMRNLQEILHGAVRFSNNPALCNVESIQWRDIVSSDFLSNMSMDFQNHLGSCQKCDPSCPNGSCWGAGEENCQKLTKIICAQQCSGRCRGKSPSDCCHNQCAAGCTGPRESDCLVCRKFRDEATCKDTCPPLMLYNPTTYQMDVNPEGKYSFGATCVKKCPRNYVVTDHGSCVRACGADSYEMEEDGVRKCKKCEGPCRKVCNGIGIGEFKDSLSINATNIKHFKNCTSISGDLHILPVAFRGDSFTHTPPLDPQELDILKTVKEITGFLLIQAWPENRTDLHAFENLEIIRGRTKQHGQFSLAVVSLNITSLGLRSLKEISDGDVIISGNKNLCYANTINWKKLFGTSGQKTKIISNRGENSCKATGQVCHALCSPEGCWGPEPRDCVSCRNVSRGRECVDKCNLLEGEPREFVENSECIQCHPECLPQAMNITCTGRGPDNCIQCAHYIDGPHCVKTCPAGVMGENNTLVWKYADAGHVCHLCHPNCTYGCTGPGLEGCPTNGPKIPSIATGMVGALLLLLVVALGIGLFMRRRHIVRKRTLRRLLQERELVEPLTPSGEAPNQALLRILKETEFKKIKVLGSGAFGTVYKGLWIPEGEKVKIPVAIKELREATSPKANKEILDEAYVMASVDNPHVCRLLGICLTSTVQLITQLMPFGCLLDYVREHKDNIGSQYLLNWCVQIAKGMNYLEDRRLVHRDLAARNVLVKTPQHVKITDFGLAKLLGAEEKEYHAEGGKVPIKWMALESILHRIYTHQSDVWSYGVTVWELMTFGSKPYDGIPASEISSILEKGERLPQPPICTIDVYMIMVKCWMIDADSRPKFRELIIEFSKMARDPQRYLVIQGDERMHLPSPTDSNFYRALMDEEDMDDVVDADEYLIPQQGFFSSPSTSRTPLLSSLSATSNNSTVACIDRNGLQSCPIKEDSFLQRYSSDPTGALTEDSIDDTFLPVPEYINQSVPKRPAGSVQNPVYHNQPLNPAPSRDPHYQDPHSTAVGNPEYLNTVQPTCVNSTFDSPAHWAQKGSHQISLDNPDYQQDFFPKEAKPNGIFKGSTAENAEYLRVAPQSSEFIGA
Description: Inhibition of EGFR derived from human A-431 cell membrane vesicles using copolymer of Glu/Ala/Tyr as substrate by scintillation counting method

IC50	SMILES
850 nM	O=C(CCc1c(SSc2[nH]c3ccccc3c2CCC(=O)Nc2ccccc2)[nH]c2ccccc12)Nc1ccccc1

Biological target: T2, Proto-oncogene tyrosine-protein kinase Src (Homo sapiens, UniProt P12931)
Test: Inhibition of src (unknown origin)

T2 sequence (P12931 2-536 limits assumed): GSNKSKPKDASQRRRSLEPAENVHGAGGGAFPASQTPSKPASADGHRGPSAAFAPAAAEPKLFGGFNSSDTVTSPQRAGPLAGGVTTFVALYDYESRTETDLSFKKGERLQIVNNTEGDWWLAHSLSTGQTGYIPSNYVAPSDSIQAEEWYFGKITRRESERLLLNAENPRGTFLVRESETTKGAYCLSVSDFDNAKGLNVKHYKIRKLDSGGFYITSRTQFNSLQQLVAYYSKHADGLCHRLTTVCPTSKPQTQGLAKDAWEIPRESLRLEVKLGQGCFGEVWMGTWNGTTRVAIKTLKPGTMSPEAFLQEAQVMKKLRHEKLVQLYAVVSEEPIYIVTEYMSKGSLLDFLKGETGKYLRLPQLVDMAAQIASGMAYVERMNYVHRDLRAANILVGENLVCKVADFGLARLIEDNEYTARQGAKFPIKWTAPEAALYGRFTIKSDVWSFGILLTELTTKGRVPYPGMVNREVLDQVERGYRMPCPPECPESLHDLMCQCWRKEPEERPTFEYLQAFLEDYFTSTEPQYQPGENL

IC50	SMILES
106000 nM	O=C1/C(=N\c2ccc(Cl)cc2)c2ccccc2N1Cc1ccccc1

Biological target: T1, Epidermal growth factor receptor
Test: Inhibition of EGFR derived from human A-431 cells using copolymer of Glu/Ala/Tyr as substrate by scintillation counting method

IC50	SMILES
> 100000 nM	Cc1ccc2c(C(=O)Nc3ccccc3)c(SSc3c(C(=O)Nc4ccccc4)c4ccc(C)cc4n3C)n(C)c2c1
> 100000 nM	Cc1ccc2c(c1)c(C(=O)Nc1ccccc1)c(SSc1c(C(=O)Nc3ccccc3)c3cc(C)ccc3n1C)n2C
> 100000 nM	Cn1c(SSc2c(C(=O)Nc3ccccc3)c3c(O)cccc3n2C)c(C(=O)Nc2ccccc2)c2c(O)cccc21

System: not listed separately
Test: Inhibition of PDGFR (unknown origin)
Design: species or system Homo sapiens

SMILES	IC50
COc1ccc2[nH]c3c(-c4ccccc4)nc4c(c3c2c1)C(=O)N(C)C4=O	> 30000 nM
Cc1ccccc1-c1nc2c(c3c1[nH]c1ccc(O)cc13)C(=O)NC2=O	> 30000 nM
COc1ccccc1-c1nc2c(c3c1[nH]c1ccc(O)cc13)C(=O)NC2=O	10000 nM
COc1cc2[nH]c3c(-c4ccccc4C)nc4c(c3c2cc1OC)C(=O)NC4=O	1000 nM
O=C1NC(=O)c2c1nc(-c1ccccc1)c1[nH]c3ccccc3c21	> 30000 nM
COc1ccccc1-c1nc2c(c3c1[nH]c1ccc(OCc4ccccc4)cc13)C(=O)NC2=O	> 30000 nM

The next lines start with the values.

IC50	SMILES
3000 nM	COc1ccc2[nH]c3c(-c4ccccc4)nc4c(c3c2c1)C(=O)NC4=O
1000 nM	COc1cc2[nH]c3c(-c4ccccc4)nc4c(c3c2cc1OC)C(=O)NC4=O
> 30000 nM	Cc1ccccc1-c1nc2c(c3c1[nH]c1ccc(OCc4ccccc4)cc13)C(=O)NC2=O

System: SW480
Test: Antiproliferative activity against human SW480 cells assessed as cell growth inhibition
Type: functional, cell-based

IC50	SMILES
13100 nM	CCn1c(C)c(C(=O)NCc2ccc(F)cc2)c2cc(OCC(=O)NCCOc3ccccc3OC)ccc21

System: not listed separately
Test: Inhibition of PDGF-BB-stimulated PDGFR autophosphorylation in mouse Swiss-3T3 cells treated for 2 hrs followed by PDGF-BB stimulation measured after 10 mins by immunoblot analysis
Type: cell-based

SMILES	IC50
O=C(c1cc2ccccc2[nH]1)c1cc2cc(O)ccc2[nH]1	200 nM
COc1ccc2[nH]c(C(=O)c3cc4ccccc4[nH]3)cc2c1	300 nM
COCC(=O)Oc1ccc2[nH]c(C(=O)c3cc4ccccc4[nH]3)cc2c1	200 nM
CN(C)CCC(=O)Oc1ccc2[nH]c(C(=O)c3cc4ccccc4[nH]3)cc2c1	100 nM
COc1cccc2cc(C(=O)c3cc4ccccc4[nH]3)[nH]c12	> 30000 nM
Cc1ccc2[nH]c(C(=O)c3cc4ccccc4[nH]3)cc2c1	7500 nM

Results, then the compound that gave them:

IC50	SMILES
300 nM	COc1ccc2cc(C(=O)c3cc4ccccc4[nH]3)[nH]c2c1
> 30000 nM	O=C(c1cc2ccccc2s1)c1cc2ccccc2s1

System: not listed separately
Test: Inhibition of v-src (unknown origin)

SMILES	IC50
Cn1c([Se][Se]c2c(C(=O)OC(C)(C)C)c3ccccc3n2C)c(C(=O)OC(C)(C)C)c2ccccc21	1500 nM
CCN(CC)CCn1c([Se][Se]c2c(C(=O)NC)c3ccccc3n2CCN(CC)CC)c(C(=O)NC)c2ccccc21	1700 nM
CNC(=O)c1c([Se][Se]c2c(C(=O)NC)c3ccccc3n2C)n(C)c2ccccc12	400 nM
NC(Cc1c(SSc2[nH]c3ccccc3c2CC(N)C(=O)NCc2ccccc2)[nH]c2ccccc12)C(=O)NCc1ccccc1 (stereo unspecified)	7000 nM

More lines, now with the values ahead:

IC50	SMILES
1800 nM	CN(C)CCNC(=O)c1c([Se][Se]c2c(C(=O)NCCN(C)C)c3ccccc3n2C)n(C)c2ccccc12
6000 nM	CNC(=O)c1c(SSc2c(C(=O)NC)c3ccccc3n2C)n(C)c2ccccc12
2000 nM	NC(Cc1c([Se][Se]c2[nH]c3ccccc3c2CC(N)C(=O)NCc2ccccc2)[nH]c2ccccc12)C(=O)NCc1ccccc1 (stereo unspecified)

System: A549
Test: Antiproliferative activity against human A549 cells assessed as cell growth inhibition
Type: functional, cell-based

IC50	SMILES
4990 nM	CCn1c(C)c(C(=O)NCc2ccc(F)cc2)c2cc(OCC(=O)NCCOc3ccccc3OC)ccc21

System: HeLa
Test: Antiproliferative activity against human HeLa cells assessed as cell growth inhibition
Type: functional, cell-based

IC50	SMILES
6810 nM	CCn1c(C)c(C(=O)NCc2ccc(F)cc2)c2cc(OCC(=O)NCCOc3ccccc3OC)ccc21

Biological target: T2, Proto-oncogene tyrosine-protein kinase Src
Test: Inhibition of p60 c-src (unknown origin)

IC50	SMILES
1340 nM	O=C(OCCN1CCCCC1)c1cc2ccccc2n1Cc1ccccc1

Biological target: T1, Epidermal growth factor receptor
Test: Inhibition of EGFR in human A-431 cell membrane vesicles using phospholipase C-gamma-1 as substrate incubated for 10 mins by scintillation counter method
Type: cell membranes, Membrane vesicle

IC50	SMILES
> 10000 nM	c1ccc2c(c1)[nH]c1c(NC3CCCCC3)ncnc12
> 10000 nM	CN(C)CCNc1ncnc2c1[nH]c1ccccc12

System: not listed separately
Test: Antiproliferative activity against mouse Swiss-3T3 cells assessed as cell growth inhibition incubated for 72 hrs by cell counter method
Type: toxicity, cell-based

SMILES	IC50 at 72 h
Cn1c(SSc2c(C(=O)Nc3ccccc3)c3c(O)cccc3n2C)c(C(=O)Nc2ccccc2)c2c(O)cccc21	1900 nM
